Laboratory results published in patent US11226337B2, “Chemoproteomic profiling of protein electrophilic and oxidative post-translational modifications” (Zenagem, LLC, priority 2017, dated 2022).

Key:
Experiment in all cases: SILAC RP-ABPP
Type in all cases: cell-based
Details in all cases: SILAC H/L, MDA-MB-231
[1] = target: T1, GAA Lysosomal alphaglucosidase (P10253) (Homo sapiens, UniProt P10253)
T1 construct: In Situ Labelling of Cells with Hydrazine Probes for MS Experiments; endogenous in cells

[2] = target: T2, GNS Nacetylglucosamine6sulfatase (P15586) (Homo sapiens, UniProt P15586)
T2 construct: In Situ Labelling of Cells with Hydrazine Probes for MS Experiments; endogenous in cells
T2 sequence (P15586 37-552): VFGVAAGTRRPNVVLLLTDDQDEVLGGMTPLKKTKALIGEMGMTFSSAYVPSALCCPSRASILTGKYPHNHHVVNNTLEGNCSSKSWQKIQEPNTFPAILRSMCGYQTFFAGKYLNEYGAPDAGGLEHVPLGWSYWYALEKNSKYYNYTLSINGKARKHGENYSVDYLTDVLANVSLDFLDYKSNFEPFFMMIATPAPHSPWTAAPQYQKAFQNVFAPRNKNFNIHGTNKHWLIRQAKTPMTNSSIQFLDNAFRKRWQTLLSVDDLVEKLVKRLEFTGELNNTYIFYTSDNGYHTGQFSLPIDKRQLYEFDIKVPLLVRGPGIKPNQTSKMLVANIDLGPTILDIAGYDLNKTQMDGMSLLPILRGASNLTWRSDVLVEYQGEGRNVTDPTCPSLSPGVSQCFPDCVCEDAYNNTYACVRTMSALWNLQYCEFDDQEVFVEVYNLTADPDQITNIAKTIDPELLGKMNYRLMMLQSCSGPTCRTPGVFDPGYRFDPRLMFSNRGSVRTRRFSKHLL

[3] = target: T3, LGALS3BP Galectin3binding protein (Q08380) (Homo sapiens, UniProt Q08380)
T3 construct: In Situ Labelling of Cells with Hydrazine Probes for MS Experiments; endogenous in cells
T3 sequence (Q08380 19-585): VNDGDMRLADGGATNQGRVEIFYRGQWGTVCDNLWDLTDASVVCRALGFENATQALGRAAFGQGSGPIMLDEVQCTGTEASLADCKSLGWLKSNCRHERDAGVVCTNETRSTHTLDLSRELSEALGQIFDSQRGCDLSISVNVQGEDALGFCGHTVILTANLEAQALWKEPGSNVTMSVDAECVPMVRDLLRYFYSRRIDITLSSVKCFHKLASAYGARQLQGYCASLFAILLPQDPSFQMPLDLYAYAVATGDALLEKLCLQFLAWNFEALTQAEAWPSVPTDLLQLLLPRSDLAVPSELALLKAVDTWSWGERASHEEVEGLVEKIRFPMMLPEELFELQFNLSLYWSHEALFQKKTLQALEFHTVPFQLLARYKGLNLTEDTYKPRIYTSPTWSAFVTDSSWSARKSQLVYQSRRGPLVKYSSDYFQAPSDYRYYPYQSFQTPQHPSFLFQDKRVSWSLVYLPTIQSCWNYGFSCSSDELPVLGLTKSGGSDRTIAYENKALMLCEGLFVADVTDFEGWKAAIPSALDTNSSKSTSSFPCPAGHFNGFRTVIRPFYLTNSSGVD

enrichment ratioavg ([1]; probe 2 1 mM 0.5 h vs probe 4)	competition ratioavg ([1]; probe 2 vs probe 2+10x probe 4)	enrichment ratioavg ([2]; probe 2 1 mM 0.5 h vs probe 4)	competition ratioavg ([2]; probe 2 vs probe 2+10x probe 4)	enrichment ratioavg ([3]; probe 2 1 mM 0.5 h vs probe 4)	competition ratioavg ([3]; probe 2 vs probe 2+10x probe 4)	Structure (SMILES)	enrichment ratioavg ([1]; probe 1 3 mM 0.5 h vs probe 3)	competition ratioavg ([1]; probe 1 vs probe 1+10x probe 3)	enrichment ratioavg ([2]; probe 1 3 mM 0.5 h vs probe 3)	competition ratioavg ([2]; probe 1 vs probe 1+10x probe 3)	enrichment ratioavg ([3]; probe 1 3 mM 0.5 h vs probe 3)	competition ratioavg ([3]; probe 1 vs probe 1+10x probe 3)
–	–	–	–	–	–	C#CCNN.Cl [probe 1, prop-2-yn-1-ylhydrazine hydrochloride]	9	2	10	3	7	3
20	4	7	3	7	3	C#CCCNC(=O)c1ccc(NN)cc1.Cl [probe 2, N-(but-3-yn-1-yl)-4-hydrazinylbenzamide hydrochloride]	–	–	–	–	–	–
